Laboratory results from patent publication EP4080216A1, “METHODS DETERMINING THE POTENTIAL OF DRUGS FOR TREATING BACTERIAL INFECTIONS AND COMPOSITION FOR TREATING BACTERIAL INFECTIONS” (priority 2021, dated 2022).
“Also recorded” adds a separate entry of the source.

Experiments:
CD14 = assay: bead assay: binding of fluorescent FimH-expressing (ON) bacteria to CD14-coupled magnetic beads, flow cytometry; set-up: species or system murine
Method: In one embodiment, the CD14 protein is a recombinant chimeric protein. In a preferred embodiment, the CD14 protein comprises the murine N-terminal of CD14 which is bound to protein A on the magnetic beads via the Fc tail. In another embodiment, the magnetic beads are pre-coated with protein A. In one preferred embodiment, a fluorescent marker is stably integrated into the DNA of the bacteria. The stable integration of a fluorescent marker into the bacteria DNA is performed by any conventional means known to the skilled person such as by transforming the bacteria with a conditional-replication, integration, and modular (CRIM) plasmid. In another embodiment, the fluorescent marker is transiently integrated into the DNA of the bacteria. The transient integration of a fluorescent marker into the bacteria DNA is performed by any conventional means known to the skilled person such as by transforming the bacteria with a plasmid harbouring the fluorescent marker. In another embodiment, the DNA is visualized by a fluorescent marker added after step f). In a preferred embodiment, the fluorescent marker added after step f) is a fluorescent dye. In the latter embodiment, the fluorescent marker or fluorescent dye is thiazole orange, Hoechst 3342, Hoechst 3358, or carboxyfluorescein diacetate (CFDA) and its derivatives. In one embodiment, the infection causing type I piliated gram-negative bacteria are causing neonatal meningitis. In another embodiment, the infection causing type I piliated gram-negative bacteria are causing inflammatory bowel diseases such as Crohn's disease or ulcerative colitis. In one embodiment, the infection causing type I piliated gram-negative bacteria causes Crohn's disease. In another embodiment, the infection causing type I piliated gram-negative bacteria causes ulcerative colitis. In yet another embodiment, the infection causing type I piliated gram-negative bacteria causes gastrointestinal disorders or gastrointestinal diseases such as salmonellosis. In a preferred embodiment, the infection causing type I piliated gram-negative bacteria cause urinary tract infections. In a particularly preferred embodiment, the type I piliated gram-negative bacteria causing urinary tract infections are uropathogenic E. coli. In one embodiment, the incubation of the type I piliated gram-negative bacteria with the CD14-coupled magnetic beads and the added drug or compound lasts between ten minutes and six hours. In one embodiment, the incubation takes between 30 minutes and three hours. In a particularly preferred embodiment, the incubation takes between 45 and 90 minutes. In one embodiment, the added drug or compound is an inhibitor, antibody or antibiotic. […]

[1] = system: Hox8b-derived murine dendritic cells; assay: adhesion assay: adhesion of dendritic cells infected with type I piliated (ON) bacteria, Hoechst fluorescence plate reader and brightfield images; type: cell-based; conditions: ON bacteria at multiplicity of infection of 10, 18 to 20 hours post infection
Method: In one embodiment, the dendritic cells are dendritic cells from any mammalian species such as human, primate, mouse, cow, pig, dog, goat, rabbit, rat and cow. In one embodiment, the dendritic cells are human or murine dendritic cells. In another embodiment, the dendritic cells are established dendritic cell lines. In another embodiment, the dendritic cells are human dendritic cell lines such as Thp-1, HL-60, MUTZ-3, U937, KG-1 and PDMC05. In one embodiment, the dendritic cells are cultured in regular cell culture dishes or cell culture plates known to the skilled person in the art. In another embodiment, the cell culture dishes or cell culture plates are treated with different extracellular matrix components such as fibronectin or fibrinogen or combinations thereof. In another embodiment, genetically modified dendritic cells are used. In a preferred embodiment, the genetically modified dendritic cells express a fluorescent marker. In a particularly preferred embodiment, the genetically modified dendritic cells have a fluorescently labelled actin cytoskeleton. In a particularly preferred embodiment, the genetically modified dendritic cells express LifeAct®-GFP and therefore, have a fluorescently labelled actin cytoskeleton. In one embodiment, the dendritic cells are infected with the bacteria at a multiplicity of infection of 1-100 (1-100 bacteria per 1 dendritic cell). The skilled person is aware that infected dendritic cells are activated dendritic cells. In another embodiment, the dendritic cells are infected with the bacteria at a multiplicity of infection of 1-30 (1-30 bacteria per 1 dendritic cell). In a particularly preferred embodiment, the dendritic cells are infected with the bacteria at a multiplicity of infection of 10 (10 bacteria per 1 dendritic cell). In one embodiment, the infection causing type I piliated gram-negative bacteria are causing neonatal meningitis. In another embodiment, the infection causing type I piliated gram-negative bacteria are causing inflammatory bowel diseases such as Crohn's disease or ulcerative colitis. In one embodiment, the infection causing type I piliated gram-negative bacteria causes Crohn's disease. In another embodiment, the infection causing type I piliated gram-negative bacteria causes ulcerative colitis. In yet another embodiment, the infection causing type I piliated gram-negative bacteria causes gastrointestinal disorders or gastrointestinal diseases such as salmonellosis. In a preferred embodiment, the infection causing type I piliated gram-negative bacteria cause urinary tract infections. In a particularly preferred embodiment, the type I piliated gram-negative bacteria causing urinary tract infections are uropathogenic E. coli. […]

Compound: D-mannose
- block binding of ON bacteria to CD14 (CD14; 175 µM, UPEC ON bacteria, one hour at 4 °C): not sufficient to block binding
- inhibit binding of ON bacteria to CD14-coupled beads (CD14; 1 mM, UPEC ON bacteria, one hour at 4 °C): prevented binding; also recorded: able to inhibit binding
- adhesion of dendritic cells ([1]; 175 µM): did not decrease adhesion
- adhesion of dendritic cells ([1]; 1 mM): resulted in decreased adhesion; also recorded: partially able to do so

Compound: Cc1c2c(c(O)c3c(O)cccc13)C(=O)[C@]1(O)C(=O)C(C(N)=O)=C(O)[C@@H](N(C)C)[C@@H]1C2 [anhydrotetracycline]
- prevent binding of ON bacteria to CD14-coupled beads (CD14; sub-minimal inhibitory concentrations, ON bacteria): not able to prevent binding
- adhesion of dendritic cells ([1]; concentration not given): increased adhesion even further; also recorded: significantly increased adhesion

Compound: CNC(=O)c1cc(C(=O)NC)cc(-c2ccc(O[C@H]3O[C@H](CO)[C@@H](O)[C@H](O)[C@@H]3O)c(C)c2)c1 [M4284]
- inhibit binding of ON bacteria to CD14-coupled beads (CD14; 10 µM, UPEC ON bacteria, one hour at 4 °C): prevented binding; also recorded: able to inhibit binding
- adhesion of dendritic cells ([1]; 10 µM): resulted in decreased adhesion; also recorded: partially able to do so
